Molecules are shown by their SMILES. ± gives the expanded uncertainty stated by the source.

The series in a line: activity coefficient (dimensionless); of the first substance listed, at infinite dilution; xn = mol fraction of the nth substance listed. The conditions noted are these: 101.33 kPa, Liquid, Chromatography, x1 = 0.

Turning to `Cc1ccccc1C` [1,2-dimethylbenzene] + CCC[n+]1ccn(C)c1.[Br-], the activity coefficient worked out at 4.19 ± 0.44 (323.15 K); 4.3 ± 0.45 (333.15 K); 4.49 ± 0.47 (343.15 K); 4.71 ± 0.49 (353.15 K); 4.97 ± 0.52 (363.15 K).
In the same order, the values of `Cc1cccc(C)c1` [1,3-dimethylbenzene] + CCC[n+]1ccn(C)c1.[Br-] are 5.91 ± 0.62, 6.04 ± 0.63, 6.18 ± 0.65, 6.33 ± 0.67 and 6.47 ± 0.68.
`Cc1ccc(C)cc1` [1,4-dimethylbenzene] + CCC[n+]1ccn(C)c1.[Br-]: the activity coefficient (323.15 K) was 5.65 ± 0.59; the activity coefficient (333.15 K) was 5.8 ± 0.61; the activity coefficient (343.15 K) stood at 5.95 ± 0.63; the activity coefficient (353.15 K) was 6.11 ± 0.64; the activity coefficient (363.15 K) came to 6.3 ± 0.66.
With `C1COCCO1` [1,4-dioxane] + CCC[n+]1ccn(C)c1.[Br-], the activity coefficient runs as follows: (323.15 K) 1.01 ± 0.1; (333.15 K) 1.05 ± 0.11; (343.15 K) 1.11 ± 0.11; (353.15 K) 1.17 ± 0.12; (363.15 K) 1.23 ± 0.13.
In the same order, the values of `CC(C)CC(C)(C)C` [2,2,4-trimethylpentane] + CCC[n+]1ccn(C)c1.[Br-] are 115 ± 12, 111 ± 12, 108 ± 11, 104 ± 11 and 101 ± 11.
In the same order, the values of `CC(C)CO` [2-methyl-1-propanol] + CCC[n+]1ccn(C)c1.[Br-] are 0.426 ± 0.049, 0.406 ± 0.047, 0.39 ± 0.046, 0.378 ± 0.045 and 0.368 ± 0.044.
In the same order, the values of `CC(C)CCO` [3-methylbutan-1-ol] + CCC[n+]1ccn(C)c1.[Br-] are 0.62 ± 0.066, 0.587 ± 0.063, 0.564 ± 0.061, 0.548 ± 0.059 and 0.531 ± 0.058.
With `CC(C)=O` [acetone] + CCC[n+]1ccn(C)c1.[Br-], the activity coefficient runs as follows: (323.15 K) 1.06 ± 0.11; (333.15 K) 1.14 ± 0.12; (343.15 K) 1.21 ± 0.12; (353.15 K) 1.29 ± 0.13; (363.15 K) 1.37 ± 0.14.
As to `CC#N` [acetonitrile] + CCC[n+]1ccn(C)c1.[Br-], the activity coefficient amounted to 0.37 ± 0.04 (323.15 K); 0.39 ± 0.05 (333.15 K); 0.41 ± 0.05 (343.15 K); 0.44 ± 0.05 (353.15 K); 0.48 ± 0.05 (363.15 K).
Consider `c1ccccc1` [benzene] + CCC[n+]1ccn(C)c1.[Br-], for which the activity coefficient (323.15 K) stood at 1.7 ± 0.18; the activity coefficient (333.15 K) came out at 1.79 ± 0.19; the activity coefficient (343.15 K) was 1.89 ± 0.2; the activity coefficient (353.15 K) turned out to be 2 ± 0.21; the activity coefficient (363.15 K) stood at 2.11 ± 0.22.
In the case of `CCCCO` [butan-1-ol] + CCC[n+]1ccn(C)c1.[Br-], the activity coefficient is, setting by setting: (323.15 K) 0.438 ± 0.05; (333.15 K) 0.417 ± 0.048; (343.15 K) 0.402 ± 0.047; (353.15 K) 0.388 ± 0.046; (363.15 K) 0.379 ± 0.045.
In the same order, the values of `CCC(C)O` (stereo not given) [butan-2-ol] + CCC[n+]1ccn(C)c1.[Br-] are 0.52 ± 0.057, 0.5 ± 0.055, 0.485 ± 0.054, 0.471 ± 0.053 and 0.462 ± 0.052.
In the same order, the values of `C1CCCCC1` [cyclohexane] + CCC[n+]1ccn(C)c1.[Br-] are 66.2 ± 7, 64.5 ± 6.8, 62.9 ± 6.6, 61.6 ± 6.5 and 60.4 ± 6.4.
For `C1=CCCCC1` [cyclohexene] + CCC[n+]1ccn(C)c1.[Br-] the same measures were 21.7 ± 2.3, 20.6 ± 2.2, 19.7 ± 2.1, 18.8 ± 2 and 18.1 ± 1.9.
As for `CCCCCCCCCC` [decane] + CCC[n+]1ccn(C)c1.[Br-], the activity coefficient was determined as 130 ± 14 (323.15 K); 124 ± 13 (333.15 K); 118 ± 12 (343.15 K); 112 ± 12 (353.15 K); 108 ± 11 (363.15 K).
`ClCCl` [dichloromethane] + CCC[n+]1ccn(C)c1.[Br-]: the activity coefficient runs as follows: (323.15 K) 0.27 ± 0.04; (333.15 K) 0.29 ± 0.04; (343.15 K) 0.31 ± 0.04; (353.15 K) 0.34 ± 0.04; (363.15 K) 0.38 ± 0.05.
With `CCO` [ethanol] + CCC[n+]1ccn(C)c1.[Br-], the activity coefficient by setting is: (323.15 K) 0.208 ± 0.033; (333.15 K) 0.197 ± 0.033; (343.15 K) 0.19 ± 0.032; (353.15 K) 0.184 ± 0.032; (363.15 K) 0.18 ± 0.032.
For `CCOC(C)=O` [ethyl acetate] + CCC[n+]1ccn(C)c1.[Br-] the same measures were 3.68 ± 0.39, 3.86 ± 0.41, 4.07 ± 0.43, 4.27 ± 0.45 and 4.46 ± 0.47.
For `CCc1ccccc1` [ethylbenzene] + CCC[n+]1ccn(C)c1.[Br-] the same measures were 5.48 ± 0.58, 5.67 ± 0.6, 5.84 ± 0.61, 6.01 ± 0.63 and 6.19 ± 0.65.
For `CCCCCCC` [heptane] + CCC[n+]1ccn(C)c1.[Br-] the same measures were 106 ± 11, 102 ± 11, 98.5 ± 10, 95.4 ± 10 and 92.5 ± 9.7.
Turning to `CCCCCC` [hexane] + CCC[n+]1ccn(C)c1.[Br-], the activity coefficient worked out at 102 ± 11 (323.15 K); 98.9 ± 10 (333.15 K); 95.6 ± 10 (343.15 K); 92.5 ± 9.7 (353.15 K); 89.9 ± 9.5 (363.15 K).
For `CO` [methanol] + CCC[n+]1ccn(C)c1.[Br-] the same measures were 0.112 ± 0.03, 0.108 ± 0.03, 0.106 ± 0.03, 0.103 ± 0.03 and 0.102 ± 0.03.
In the same order, the values of `CC1CCCCC1` [methylcyclohexane] + CCC[n+]1ccn(C)c1.[Br-] are 82.3 ± 8.7, 79.9 ± 8.4, 77.5 ± 8.2, 75.2 ± 7.9 and 73.2 ± 7.7.
For the molecule `CCCCCCCCC` [nonane] + CCC[n+]1ccn(C)c1.[Br-], the activity coefficient worked out at 119 ± 13 (323.15 K); 115 ± 12 (333.15 K); 110 ± 12 (343.15 K); 106 ± 11 (353.15 K); 103 ± 11 (363.15 K).
For `CCCCCCCC` [octane] + CCC[n+]1ccn(C)c1.[Br-] the same measures were 111 ± 12, 107 ± 11, 104 ± 11, 100 ± 11 and 97.7 ± 10.
For `CCCCCO` [pentan-1-ol] + CCC[n+]1ccn(C)c1.[Br-] the same measures were 0.692 ± 0.072, 0.651 ± 0.069, 0.619 ± 0.066, 0.592 ± 0.063 and 0.575 ± 0.062.
In the same order, the values of `CCCO` [propan-1-ol] + CCC[n+]1ccn(C)c1.[Br-] are 0.279 ± 0.038, 0.268 ± 0.037, 0.258 ± 0.036, 0.25 ± 0.036 and 0.244 ± 0.035.
For the molecule `CC(C)O` [propan-2-ol] + CCC[n+]1ccn(C)c1.[Br-], the activity coefficient is, setting by setting: (323.15 K) 0.373 ± 0.044; (333.15 K) 0.359 ± 0.043; (343.15 K) 0.344 ± 0.042; (353.15 K) 0.334 ± 0.042; (363.15 K) 0.326 ± 0.041.
Turning to `C=Cc1ccccc1` [styrene] + CCC[n+]1ccn(C)c1.[Br-], the activity coefficient came out at 1.83 ± 0.19 (323.15 K); 1.92 ± 0.2 (333.15 K); 2 ± 0.21 (343.15 K); 2.08 ± 0.22 (353.15 K); 2.17 ± 0.23 (363.15 K).
For `ClC(Cl)(Cl)Cl` [tetrachloromethane] + CCC[n+]1ccn(C)c1.[Br-] the same measures were 0.78 ± 0.08, 0.86 ± 0.09, 0.96 ± 0.1, 1.07 ± 0.11 and 1.17 ± 0.12.
For the molecule `C1CCOC1` [tetrahydrofuran] + CCC[n+]1ccn(C)c1.[Br-], the activity coefficient by setting is: (323.15 K) 2.11 ± 0.22; (333.15 K) 2.19 ± 0.23; (343.15 K) 2.28 ± 0.24; (353.15 K) 2.37 ± 0.25; (363.15 K) 2.47 ± 0.26.
Regarding `Cc1ccccc1` [toluene] + CCC[n+]1ccn(C)c1.[Br-], the activity coefficient was determined as 2.95 ± 0.31 (323.15 K); 3.11 ± 0.33 (333.15 K); 3.33 ± 0.35 (343.15 K); 3.5 ± 0.37 (353.15 K); 3.72 ± 0.39 (363.15 K).
In the same order, the values of `ClC(Cl)Cl` [trichloromethane] + CCC[n+]1ccn(C)c1.[Br-] are 0.13 ± 0.03, 0.15 ± 0.03, 0.16 ± 0.03, 0.18 ± 0.03 and 0.2 ± 0.03.

Source of the values: the NIST ThermoML archive (doi:10.1016/j.jct.2018.09.023).
